# Assay results from US5147876A, “2,6-di,2,4,6-, 2,5,6-tri and 2,4,5,6-tetra-substituted pyrimidines, their pharmaceutically acceptable salts, pharmaceutical compositions containing same and their use in the treatment of neurological diseases” (Mitsui Petrochemical Industries, Ltd., priority 1988, dated 1992).
# Values joined by “and” are separate entries in the source; they are usually repeats but may differ in a detail not shown here. Identical values can stand only once. Counter-ions that a name gives are not always drawn.
# How the values were obtained:
# [1] = system: neuro-2a (mouse neuroblastoma cells); assay: Action on neuro-2a: proportion of cells containing outgrown neurites; type: cell-based; conditions: mean ± S.D.
# In short: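 Read-out is the percentage of neurite-bearing cells (neurite ≥2× long cell diameter), counted microscopically over more than 200 cells per well. Before fixation and staining, neuro-2a cells (1,000/well, DMEM + 10% FCS) were cultured for one day at 37 °C; up to six compound concentrations, three runs each.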
# [2] = system: NS-20Y (mouse neuroblastoma cells); assay: Activity on NS-20Y cells: appearance of neurites; type: cell-based
# In short: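 Mouse neuroblastoma NS-20Y cells were grown in polyornithine-coated dishes in DMEM with 10 % FCS, 100 units/ml penicillin G sodium and 100 micrograms/ml streptomycin sulfate, at 37° C under 5 % carbon dioxide, and exposed to compound. Cells were fixed with 4 % glutaraldehyde, stained with 0.05 % methylene blue, and the fraction bearing neurites at least twice the cell's long diameter was counted microscopically.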
# [3] = system: rats with crushed sciatic nerves; assay: Twitch tension of hind paw in rats with crushed sciatic nerves; type: in vivo, rat (male Wistar)
# Experimental: (§1) The therapeutic effect of the compound of the invention was tested on rats having crushed sciatic nerves as a model of peripheral nervous disorder using (1) a change in the action of the hind paw with the crushed sciatic nerves and (2) a change in the weight of the muscle as an index of the course of degeneration and regeneration of peripheral nerves.
# (§2) In the experiment, male Wistar rats (6 weeks old), seven per group, were used. The sciatic nerves were crushed by a method similar to the method of Yamatsu et al. (see Kiyomi Yamatsu, Takenori Kaneko, Akifumi Kitahara and Isao Ohkawa, Journal of Japanese Pharmacological Society, 72, 259-268 (1976) and the method of Hasegawa et al. (see Kazuo Hasegawa, Naoji Mikuni and Yutaka Sakai, Journal of Japanese Pharmacological Society, 74, 721-734 (1978). Specifically, under anesthesia with pentobarbital (40 mg/kg, i.p.), the left side sciatic nerve was exposed at the femur, and a specific site of the exposed sciatic nerve was crushed for 30 seconds by using a hemostat. After the crushing, the operation site was immediately sutured. Thereafter, vincristine known to retard the regeneration of the peripheral nerve was intraperitoneally administered in a dose of 100 g/kg once a week.
# (§3) Compounds of the invention were selected as test drugs, and administered intraperitoneally once a day from the day of crushing to 30th day from then. To a control group, only 0.9 % saline was administered.
# Twitch tension, which is a transient tension incident to contraction of the dominated muscles that occurs by electrical stimulation or the like of motor nerves, as is the case with the interdigit distance to be described, is considered to reflect functional changes of the nerves and muscles.
# […] J. Neurosci. Methods, 19, 259 (1987)]. Specifically, the hair on the hind paw of rats was shaven, and coated with Cardiocream (a product of Nihon Denko K.K.). Then, to the skin of the hind paw, electrodes with an alligator were attached The cathode was attached to the rear portion of the trochiter, and the […], to a site 1 cm rearwardly of the […] electrode and 1 cm toward its back. The rat was fixed on its back, and the hind paw to be measured was fixed perpendicularly. A silk yarn, about 20 cm long, was connected at one end to the third efferent toe joint of the hind paw to be measured and at the other end to a tension transducer. Isotonic contractions of the third muscle digitus flexus were recorded on a polygraph. Electrical stimulation was effected at a voltage of 100V for a continuous duration of 1 msec. with rectangular waves at a frequency of 2 Hz. The static tension was 15 to 30 g, and 10 stimulations were repeated 3 times with intervals of 15 seconds. The contracting force was expressed as tension (g). From the measured values of both paws, the recovery ratio (%, left/right) of the contracting force of the paw with crushed nerves was calculated.
# [4] = system: rats with crushed sciatic nerves; assay: Weight of muscle extensor digitorum longus in rats with crushed sciatic nerves; type: in vivo, rat (male Wistar); conditions: thirty days after operation, mean ± S.D.
# Experimental: as §1, §2, §3
# It is known that removal of a nerve or its disorder causes atorphy of the muscle which is under its control, and the atrophy is gradually cured by re-control by the nerve. For this reason, a change in the weight of the muscle, which is quantitative, was selected as an index. Thirty days after the operation, the muscles extensor digitorum longus of both hind paws which are muscles under the control of sciatic nerves were extracted under anesthesia, and their weights were measured. The ratio of the weight of the muscle extensor digitorum longus on the crushed side to that of normal side was calculated and expressed in percentage (%).
# [5] = system: rats with lesioned nigral dopaminergic nerve cells; assay: Motor imbalance (methamphetamine-induced rotation) after 6-hydroxydopamine lesion and transplantation of fetal cerebral cells; type: in vivo, rat (female Wistar)
# Experimental: Nigral dopaminergic nerve cells at the left side of the brain of 4-week old female Wistar rats (body weight 100 g) were lesioned by injecting a very small quantity of 6-hydroxydopamine. […] Upon administration of methamphethamine (5 mg/kg, i.p.) to the rats having the lesioned nigral dopaminergic nerve cells, they began rotational movement toward the lesioned side.
# After two weeks from the destruction by the administration of the drug, portions of the […] containing dopamine cells (i.e., substantial nigra and the tagmentum at the abdomen side) were cut from the brain of a fetal rat of 14 to 17 days of age, cut finely, and treated with trypsin. Then, the extracted tissues were incubated at 37° C. for 30 minutes, and the tissues were subjected to pipetting to form a suspension. Five microliters of the suspension was transplanted each into two sites of the caudate nucleus of the lesioned side (10 microliters in total, about 10^5 cells)
# Compound No. 168 of the invention was administered in a dose of 156 mg/kg (i.p.) for 4 days from the day of transplantation, then with a suspension of 7 days, for 10 days in a dose of 50 mg/kg (i.p.) from the 11th day. Compound No. 296 was administered in a dose of 153 mg/kg, and then 50 mg/kg, in accordance with the same schedule.
# Compound No. 3144 was also administered in accordance with the same schedule in a dose of 135 mg/kg, and then 45 mg/kg.
# The rotational movements induced by administration of methamphetamine were examined 2 weeks and 1 week before, and 2 (or 3), 4, 6 and 8 weeks after, the transplantation and the administration of the drug. The number of rotational movements for the first one minute was counted at intervals of 10 minutes after the administration of methamphetamine, and the total number of rotational movements counted six times was averaged to find a mean number of the rotational movements.
# Acute toxicity on mice = type: in vivo; conditions: mouse, in vivo, ip, 24 hours after administration; read-out: Estimated LD50
# Experimental: (§4) The acute toxicity of the compounds of the invention was examined by the following method.
# (§5) Male ddy-strain 5-week old mice, 4-6- per group, were used as experimental animals. Each of the compounds was intraperitoneally (i.p.), and the toxicity of the compound was assessed 24 hours after the administration.
# mice = assay: Acute toxicity on mice; type: in vivo; conditions: 24 hours after administration
# Experimental: as §4, §5
# [6] = system: rats having crushed sciatic nerves; assay: Interdigit distance in rats with crushed sciatic nerves; type: in vivo, rat (male Wistar); conditions: 30 mg/kg, i.p.
# Experimental: as §1
# as §2, with “Thereafter, vincristine known to retard the regeneration of the peripheral nerve was intraperitoneally administered in a dose of 100 g/kg once a week.” left out
# By a method similar to the method of Hasegawa [Hasegawa, K., Experientia, 34, 750-751 (1978)], the distance between the first and fifth digits of the hind paw was measured.
# The ratio of the measured distance to the interdigit distance in a normal hind paw was calculated and expressed in percentage (%). […]
# [7] = Table 14, 30 mg/kg i.p. once a day, 30 days, mean ± S.D., 168: *3 p < 0.01, 296: *2 p < 0.05
# [8] = 3 W after transplantation, i.p. 168: 156 then 50, 296: 153 then 50, 3144: 135 then 45 mg/kg
# [9] = 4 W after transplantation, i.p. 168: 156 then 50, 296: 153 then 50, 3144: 135 then 45 mg/kg
# [10] = 6 W after transplantation, i.p. 168: 156 then 50, 296: 153 then 50, 3144: 135 then 45 mg/kg
# [11] = 8 W after transplantation, i.p. 168: 156 then 50, 296: 153 then 50, 3144: 135 then 45 mg/kg
# [12] = -1 W (before transplantation and drug)
SMILES,Number of cells having neurites with a length at least two times the diameter of each cell/total number of cells ([1]; 0.1 mM),Number of cells having neurites with a length at least two times the diameter of each cell/total number of cells ([1]; 0.3 mM) [%],"Number of cells in which neurites appeared/total number of cells ([2]; 24 hours, 0.1 mM)","Number of cells in which neurites appeared/total number of cells ([2]; 48 hours, 0.1 mM)","Twitch tension left/right [3, 7] [%]","Weight of muscle extensor digitorum longus left/right ([4]; 30 mg/kg, *2 p < 0.05) [%]","mean number of the rotational movements [5, 8]","mean number of the rotational movements [5, 9]","mean number of the rotational movements [5, 10]","mean number of the rotational movements [5, 11]","mean number of the rotational movements [5, 12]",LD50 at 24 h (Acute toxicity on mice) [mg/kg],Estimated LD50 (mice),Number of cells having neurites with a length at least two times the diameter of each cell/total number of cells ([1]; 0.03 mM) [%],Number of cells having neurites with a length at least two times the diameter of each cell/total number of cells ([1]; 1 mM) [%],further results
"CN(C(=O)c1ccccc1)c1ccnc(N2CCC(c3ccccc3)CC2)n1 [Compound 168, 4-(N-methylbenzamino)-2-(4-phenylpiperidino)pyrimidine p-toluenesulfonate]",35.7 ± 0.8%,14.6 ± 4.3,26/50,20/55,51.2 ± 13.6,59.4 ± 11.8,9.1 ± 5.6,4.5 ± 4.5,1.5 ± 3.9,0.8 ± 2.1,13.3 ± 7.8,> 1000,,,,"Number of cells having neurites with a length at least two times the diameter of each cell/total number of cells ([1]; 0.05 mM): 23.8 ± 2%; Number of cells having neurites with a length at least two times the diameter of each cell/total number of cells ([1]; 0.2 mM): 24.4 ± 6.9%; Number of cells in which neurites appeared/total number of cells ([2]; 24 hours, 0.25 mM): 12/50; Twitch tension left/right ([3]; Table 14, 10 mg/kg i.p. once a day, 30 days, mean ± S.D., *2 p < 0.05): 48.4 ± 11.8%; Weight of muscle extensor digitorum longus left/right ([4]; 10 mg/kg): 52.1 ± 5.4%"
"CN(C(=O)c1ccccc1)c1ccnc(N2CCC(c3ccccc3)CC2)n1 [Compound 170, 4-(N-methylbenzamino)-2-(4-phenylpiperidino)pyrimidine hydrochloride]",,,,,,,,,,,,,"> 1000 mg/kg, i.p.",,,"Number of cells having neurites with a length at least two times the diameter of each cell/total number of cells ([1]; 0.1 mM, hydrochloride): 33.5 ± 2.4%; Number of cells having neurites with a length at least two times the diameter of each cell/total number of cells ([1]; 0.3 mM, hydrochloride): 31.0 ± 4.6%"
CN(C(=O)c1ccc(Cl)cc1Cl)c1ccnc(N2CCC(c3ccccc3)CC2)n1.Cc1ccc(S(=O)(=O)O)cc1 [Compound 171-11],36.8 ± 7.1% and 22.1 ± 2.3%,,,2/50,,,,,,,,,"> 1000 mg/kg, i.p.",5.9 ± 0.9,31.7 ± 5.9,"Number of cells in which neurites appeared/total number of cells ([2]; 24 hours, 0.3 mM): 5/50"
CN(C(=O)c1ccco1)c1ccnc(N2CCC(c3ccccc3)CC2)n1 [Compound 296],44.4 ± 5.5%,22.4 ± 3.0,9/49,2/50,48.1 ± 9.4,56.9 ± 9.7,8.4 ± 5.0,3.1 ± 3.4,0.9 ± 2.3,1.0 ± 1.5,13.2 ± 4.1,> 1000,,,,
CN1C(=O)Cc2cnc(N3CCN(C(c4ccccc4)c4ccc(Cl)cc4)CC3)nc21 (stereo not shown) [Compound 3144],34.1 ± 3.8%,44.5 ± 9.7,,,,,7.7 ± 4.7,4.0 ± 5.6,0.2 ± 2.2,1.1 ± 4.1,14.1 ± 4.7,500 to 1000,,20.8 ± 4.7,32.2 ± 1.6,"Twitch tension left/right ([3]; Table 15, 30 mg/kg, 18th days): 54.5 ± 17.1%; Twitch tension left/right ([3]; Table 15, 30 mg/kg, 23rd days): 57.9 ± 15.5%; Recovery of the interdigit distance ([6]; 18th days): 72.7 ± 14.0%; Recovery of the interdigit distance ([6]; 23rd days): 83.8 ± 12.2%"
